Source: patent US7279172B2, “Treatment of autoimmune conditions with copolymer 1 and related copolymers” (priority 1998, dated 2007)
“Also recorded” adds a separate entry of the source.

Tests used:
mouse spleen macrophages = assay: Binding of biotinylated polypeptides to living antigen presenting cells (FACS), mouse; settings: 50 μg biotinylated polypeptide, 37° C. for 20 hr
[1] = test system: T cells specific for the MBP 84-102 antigen; assay: Inhibition of MBP-induced T cell proliferation; format: cell-based, mouse, human
HLA-DR1 [2] = target: T1, HLA-DR1 (Homo sapiens, UniProt P01903+P01911, A100R/D57E/F55L/F60I/F76Y/I96L/L162R/M171V/P40L/Q125E/R42F/V115G/Y59C); assay: Binding of biotinylated polypeptides to purified HLA-DR1
HLA-DR4 [3] = target: T2, HLA-DR4 (Homo sapiens, UniProt P01903+P01911, A100K/A169T/F76Y/I96L/K127E/L162R/M171V/N62H/P40V/Q125Y/R42H/S133A/S149N/S66Y/V115G/V209L/W38E); assay: Competitive inhibition of biotinylated Copolymer 1 binding to HLA-DR4
HLA-DR2 [4] = target: T3, HLA-DR2 (Homo sapiens, UniProt P01903+P01911); assay: Binding of biotinylated polypeptides to purified HLA-DR2
[5] = test system: experimental allergic encephalomyelitis (EAE); assay: EAE suppression by oral administration; settings: Lewis rats fed 5 mg/kg; mean maximal score for the entire group, 0-5 scale
[6] = test system: Rat Basophilic Leukemia cells (RBL-2Ho); assay: In vitro Rat Basophilic Leukemia cell degranulation test ([3H]-serotonin release); format: cell-based; settings: 100 μg
Excerpt: Histamine (or serotonin) release from basophile is an in vitro model for immediate hypersensitivity. The Rat Basophilic Leukemia cell line, RBL-2Ho, is uniform and easy to maintain in culture but is a highly sensitive and reproducible system for testing for degranulation. E. L. Basumian, et al., 11 EUR. J. IMMUNOL. 317 (1981). The physiological stimulus for histamine release involves binding of the antigen to membrane-bound IgE molecules, which triggers an intricate biochemical cascade. Degranulation is induced by non-IgE-mediated stimuli, including various peptides and synthetic polymers, e.g. polylysine. R. P. Siraganian, TRENDS IN PHARM[…] 432 (October 1983). The RBL degranulation test is, therefore, used to screen out those batches of COP-1 which evoke substantial degranulation and thus might elicit undesirable local and/or systemic side effects.
Rat Basophilic Leukemia cells (RBL-2Ho), are loaded with [H^3]-serotonin, followed by incubation with 100 μg of the COP-1 to be tested. Batches of COP-1 which induce non-specific degranulation, release [H^3]-serotonin into the medium. The radioactivity in the medium is counted by a scintillation counter and the total radiolabeled serotonin incorporated into the cells is determined in the pelleted cells. Percent degranulation is calculated as the percentage of serotonin released out of the total incorporated.

HLA-DR1 [7] = target: T1, HLA-DR1; assay: Competitive inhibition of biotinylated Copolymer 1 binding to HLA-DR1
[8] = test system: human EBV transformed B-cell line; assay: Binding of biotinylated polypeptides to living antigen presenting cells (FACS), human; settings: 50 μg biotinylated polypeptide, 37° C. for 20 hr; DR7,w11 haplotype
mice = assay: Toxicity test in mice (i.v. injection, 48 hour observation); format: in vivo
Procedure: Three batches of copolymer-1 having an average molecular weight of 7.3 and 8.4 KDa (less than 2.5% copolymer-1 species over 40KDa) and 22KDa (more than 5% copolymer-1 species over 40KDa) were subjected to the toxicity test described below. Five mice were used in each experimental group.
Copolymer-1 is dissolved in distilled water to yield a solution of 2 mg/ml of the active ingredient. Each mouse is injected with 0.5 ml of the test solution into the lateral tail vein. […] Observations were recorded 10 minutes, 24 hours and 48 hours post-injection. If, at the end of 48 hours, all the animals were alive and no adverse signs had been observed, then the batch is designated “non-toxic”. If, however, one or more of the mice had died or had shown adverse signs, then the batch is designated “toxic”.

WCB AB line = assay: IL-2 secretion from WCB AB line; settings: for % Inhibition of IL-2 secretion: 2μM p259
HLA-DR4 [9] = target: T2, HLA-DR4; assay: Binding of biotinylated polypeptides to purified HLA-DR4
[10] = test system: experimental allergic encephalomyelitis (EAE); assay: EAE suppression by injection with incomplete adjuvant; format: in vivo, (SJL/J×BALB/c)FI mice
HLA-DR2 [11] = target: T3, HLA-DR2; assay: Competitive inhibition of biotinylated Copolymer 1 binding to HLA-DR2; settings: vs 1.5 μM biotinylated Copolymer 1, pH 5.0, 40 hr 37° C.
[12] = vs 1.5 μM biotinylated Copolymer 1, pH 5.0, 40 hr 37° C.
[13] = mice, 10 mg/mouse subcutaneously in ICFA, EAE induced 3 weeks later

## Copolymer 1 [reference compound]
Mouse spleen macrophages
  % Binding: 85%
  MFI (Mean Fluorescence Intensity): 493
[1]; polypeptide added with stimulating MBP antigen
  inhibition of proliferation of T cells exposed to MBP 84-102 antigen (in words): significantly inhibited the proliferation
[1]; polypeptide as antigen
  stimulation of proliferation of T cells specific for the 84-102 peptide of MBP (in words): did not stimulate proliferation
HLA-DR1 [2]; detergent-soluble HLA-DR1
  binding to HLA-DR1, comparison / order of binding capacity (in words): better than that of GAL, TGA or GTL; also recorded: Copolymer 1>TAL>GTL>TGA>>GAL
HLA-DR1 [2]; read-out: Kd DR1, detergent-soluble HLA-DR1, pH 5.0, 40 hr 37° C., from slope of double reciprocal plot
  Kd: 0.074 µM
HLA-DR4 [3]; unlabeled inhibitor
  inhibition of binding of biotinylated Copolymer 1 to HLA-DR4 (in words): efficiently inhibited
HLA-DR4 [3]; [12]
  IC50: 10.8 µM
HLA-DR2 [4]; detergent-soluble HLA-DR2
  binding to HLA-DR2, comparison / order of binding capacity (in words): bound better than the other polypeptides; also recorded: Copolymer 1>GTL>TAL>GAL>TGA
HLA-DR2 [4]; read-out: Kd DR2, detergent-soluble HLA-DR2, pH 5.0, 40 hr 37° C., from slope of double reciprocal plot
  Kd: 0.082 µM
[5]
  MMS ± SD: 0.78 ± 0.45
[6]; Copolymer 1 batch Average M.W. 6,250, <2.5% species over 40 KDa
  % Serotonin Release: 12.4%
[6]; Copolymer 1 batch Average M.W. 7,300, <2.5% species over 40 KDa
  % Serotonin Release: 21.0%
[6]; Copolymer 1 batch Average M.W. 13,000, >5% species over 40 KDa
  % Serotonin Release: 66.9%
[6]; Copolymer 1 batch Average M.W. 14,500, >5% species over 40 KDa
  % Serotonin Release: 67.8%
HLA-DR1 [7]; unlabeled inhibitor
  inhibition of binding of biotinylated Copolymer 1 to HLA-DR1 (in words): efficiently inhibited
HLA-DR1 [7]; [12]
  IC50: 8.8 µM
[8]
  % Binding: 96%
  MFI (Mean Fluorescence Intensity): 727
mice; Copolymer 1 batch of 7.3 KDa average molecular weight
  batch designation toxic / non-toxic: non-toxic
mice; Copolymer 1 batch of 8.4 KDa average molecular weight
  batch designation toxic / non-toxic: non-toxic
mice; Copolymer 1 batch of 22 kDa average molecular weight
  batch designation toxic / non-toxic: toxic
mice; Copolymer 1 batch of 22 kDa average molecular weight, 0.5 ml of 2 mg/ml into lateral tail vein, five mice
  mice died after 48 hours: Three of five
WCB AB line; Cop1 20 μM
  % Inhibition of IL-2 secretion: 73%
WCB AB line; Cop1 60 μM
  % Inhibition of IL-2 secretion: 88%
WCB AB line; Cop1 100 μM
  % Inhibition of IL-2 secretion: about 91%
WCB AB line; Cop1 100 μM, listed as Cop1
  % Inhibition of IL-2 secretion: 91%
WCB AB line; Copolymer 1 incubated with the p259 peptide
  inhibition of p259-induced T cell secretion of IL-2 (in words): inhibited in a dose-related fashion
HLA-DR4 [9]; detergent-soluble HLA-DR4
  binding to HLA-DR4, comparison / order of binding capacity (in words): better than that of GAL, TGA or GTL; also recorded: TAL>Copolymer 1>>TGA>GTL>GAL
HLA-DR4 [9]; read-out: Kd DR4, detergent-soluble HLA-DR4, pH 5.0, 40 hr 37° C., from slope of double reciprocal plot
  Kd: 0.015 µM
[10]; injection in ICFA prior to induction of EAE
  EAE suppression (in words): greatest EAE suppression
[10]; [13]
  Incidence: 2/11
  Suppression % Incidence: 82.0%
  Suppression % MMS: 89.0%
[10]; mice, 10 mg/mouse subcutaneously in ICFA, EAE induced 3 weeks later, 0-5 scale
  MMS (Mean Maximal Score): 0.45
HLA-DR2 [11]
  IC50: 10.1 µM
